One data set concerns EV71. The data set can be described thus: Cytopathic effect (CPE) inhibition assay, RD cells infected with EV71 (pre-, post-, co-treatment). Format: cell-based, human rhabdomyosarcoma (RD) cells. As for the experimental part: RD cells were seeded at 7.5×10^3 cells/well in 96-well plates and incubated for 24 hours at 37° C. To analyze how Cur-CQDs affect the infectivity of EV71, Cur-CQDs pre-treatment, post-treatment, co-treatment assay was taken as follows. For pre-treatment, Cur-CQDs were pre-incubated with RD cells at 37° C. for 24 hours and then cultured with EV71 for 48 hours at 37° C. For post-treatment, EV71 were pre-incubated with RD cells at 37° C. for 24 hours, after that, cell monolayers were washed with PBS to remove non-adherent virus and further incubated with DMEM (containing 2% FBS and Cur-CQDs) at 37° C. for 48 hours. For co-treatment, EV71 were pre-incubated with series of CQDcurs at 37° C. for 1 hour, then cultured with RD cells for 72 hours at 37° C. Negative (cells only) and positive (cells infected with EV71 without Cur-CQDs) controls were set as well.
A general note: Cytopathic effects are the visible damage that an infection or toxin causes in cultured cells.

Data set [1] is described as follows: Cytotoxicity / cell viability (Presto blue). Type of data set: cell-based. The note with it: human, RD cells. As for the experimental part: The in vitro cellular viability of the as-prepared Cur-CQDs was evaluated using the Presto blue. First, approximately 7.5×10^3 RD cells/well were seeded in 96-cell plates and were fed with DMEM containing 10% fetal bovine serum (FBS). After 24 hours of incubation in a humidified incubator with 5% CO2 at 37° C., the medium was removed from each well, and RD cells were washed with phosphate buffered saline (PBS, pH 7.4). Then, sample solutions (Cur-CQDs with different concentrations) or the control solutions were added in and incubated with cells for 24 hours to 72 hours. Each concentration was tested with 4 sets of parallel samples. After that, the culture medium was replaced with Presto blue and incubated for another 1 hour at 37° C. Finally, fluorescence was measured at an excitation wavelength at 540 nm and an emission wavelength at 590 nm with a BioTek Microplate Reader. The viability of cells was expressed as the percentage of control untreated cells (100%).

One compound from patent US11464823B2, “Curcumin carbon quantum dots and use thereof” (priority 2018, dated 2022) can be followed below.

What is called CC50 is the concentration that lowers cell viability or growth by half. High values mean better tolerance by the cells, low ones harm at low concentration.

As for `COc1cc(/C=C/C(=O)CC(=O)/C=C/c2ccc(O)c(OC)c2)ccc1O` [Curcumin], in the data set on EV71 (Enterovirus A, EV71 in RD cell, read-out: Antiviral activity EC50 (concentration at which inhibition rate of CPE reaches halfway between baseline and maximum)), the EC50 was above 200 µg/mL. Also, the selectivity ratio in the data set on EV71 (human) was 0.1. The compound further had a CC50 in data set [1] above 13 µg/mL.
